Measured values: patent publication US20260355196A1, “INHIBITORS AND DEGRADERS OF PIP4K PROTEIN” (Larkspur Biosciences, Inc., priority 2023, published 2026)

target: T1, PIP4K2C (Homo sapiens, UniProt Q8TBX8); test: HiBiT PIP4K2C degradation assay in MOLT-4 cells (endogenous PIP4K2C C-terminally tagged with HiBiT); assay type: cell-based; parameters: untagged in primary human PBMCs and monocyte-derived dendritic cells; conditions: 6 hours of incubation time, rather than 24 hours; MOLT-4, top concentration 10 micromolar; read-out: HiBIT-degradation MOLT4 PIP4k2C DC50 (6 hours, marked *)
T1 sequence (Q8TBX8 1-421): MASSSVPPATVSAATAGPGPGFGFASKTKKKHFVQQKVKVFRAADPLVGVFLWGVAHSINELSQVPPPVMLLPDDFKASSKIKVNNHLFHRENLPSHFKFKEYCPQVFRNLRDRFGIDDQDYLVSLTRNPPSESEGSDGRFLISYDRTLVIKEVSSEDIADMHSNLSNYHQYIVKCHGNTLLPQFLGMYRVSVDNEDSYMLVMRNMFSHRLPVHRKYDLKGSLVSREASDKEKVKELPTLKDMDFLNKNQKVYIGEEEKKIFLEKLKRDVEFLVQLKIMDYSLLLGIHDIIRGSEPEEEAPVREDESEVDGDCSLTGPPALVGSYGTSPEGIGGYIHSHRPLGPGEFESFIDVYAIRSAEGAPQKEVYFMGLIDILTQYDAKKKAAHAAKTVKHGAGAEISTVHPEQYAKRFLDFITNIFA
How it was run: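 Cells are plated onto compound dilutions (10 points, 3-fold, top 10 micromolar) and incubated 24 or 6 hours at 37 C. Lytic HiBiT detection then quantifies tagged endogenous PIP4K2C in MOLT-4, and a Hill fit yields DC50.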

SMILES | DC50 [nM]
O=C1CCC(Nc2ccc(N3CCN(C4CCN(C(=O)O[C@H]5CC[C@H](Nc6ncc(F)c(-c7cccc(-c8ccccc8)c7)n6)CC5)CC4)CC3)c(F)c2)C(=O)N1 (stereo partly drawn) [Compound 664, trans-[4-[[5-fluoro-4-(3-phenylphenyl)pyrimidin-2-yl]amino]cyclohexyl]4-[4-[4-[(2,6-dioxo-3-piperidyl)amino]-2-fluoro-phenyl]piperazin-1-yl]piperidine-1-carboxylate] | < 500
O=C1CCC(Nc2ccc(C3CCN(CC4(O)CCN(C(=O)[C@H]5CC[C@H](Nc6ncc(F)c(-c7cccc(N8CCOCC8)c7)n6)CC5)CC4)CC3)c(F)c2)C(=O)N1 (stereo partly drawn) [Compound 665, 3-((3-fluoro-4-(1-((1-((trans)-4-((5-fluoro-4-(3-morpholinophenyl)pyrimidin-2-yl)amino)cyclohexane-1-carbonyl)-4-hydroxypiperidin-4-yl)methyl)piperidin-4-yl)phenyl)amino)piperidine-2,6-dione] | < 500
O=C1CCC(Nc2ccc(N3CCC(N4CCN(C(=O)O[C@H]5CC[C@H](Nc6ncc(F)c(-c7cccc(-n8ccccc8=O)c7)n6)CC5)CC4)C(F)C3)c(F)c2)C(=O)N1 (stereo partly drawn) [Compound 668, trans-[4-[[5-fluoro-4-[3-(2-oxo-1-pyridyl)phenyl]pyrimidin-2-yl]amino]cyclohexyl]4-[1-[4-[(2,6-dioxo-3-piperidyl)amino]-2-fluoro-phenyl]-3-fluoro-4-piperidyl]piperazine-1-carboxylate] | > 5000
O=C1CCC(Nc2ccc(C3CCN(C(=O)C4CCN(C(=O)[C@H]5CC[C@H](Nc6ncc(F)c(-c7cccc(-n8ccccc8=O)c7)n6)CC5)CC4)CC3)c(F)c2)C(=O)N1 (stereo partly drawn) [Compound 669, trans-3-((3-fluoro-4-(1-(1-(4-((5-fluoro-4-(3-(2-oxopyridin-1 (2H)-yl)phenyl)pyrimidin-2-yl)amino)cyclohexane-1-carbonyl)piperidine-4-carbonyl)piperidin-4-yl)phenyl)amino)piperidine-2,6-dione] | < 500
O=C1CCC(Nc2ccc(C3CCN(C[C@H]4CC[C@H](C(=O)N5CCC(Nc6ncc(F)c(-c7cccc(N8CCOCC8)c7)n6)CC5)CC4)CC3)c(F)c2)C(=O)N1 (stereo partly drawn) [Compound 671, trans-3-((3-fluoro-4-(1-((4-(4-((5-fluoro-4-(3-morpholinophenyl)pyrimidin-2-yl)amino)piperidine-1-carbonyl)cyclohexyl)methyl)piperidin-4-yl)phenyl)amino)piperidine-2,6-dione] | < 500
O=C1CCC(Nc2ccc(C3CCN(CC4CCN(C(=O)[C@H]5CC[C@H](Nc6ncc(F)c(-c7cccc(N8CCOCC8)c7)n6)CC5)CC4)CC3)c(F)c2)C(=O)N1 (stereo partly drawn) [Compound 672, trans-3-((3-fluoro-4-(1-((1-(4-((5-fluoro-4-(3-morpholinophenyl)pyrimidin-2-yl)amino)cyclohexane-1-carbonyl)piperidin-4-yl)methyl)piperidin-4-yl)phenyl)amino)piperidine-2,6-dione] | < 500
Cn1nc(C2CCC(=O)NC2=O)c2ccc(C3CCN(C[C@H]4CC[C@H](OC(=O)N5CCC(Nc6ncc(F)c(-c7cccc(-n8ccccc8=O)c7)n6)CC5)CC4)CC3)cc21 (stereo partly drawn) [Compound 679, trans-4-((4-(3-(2,6-dioxopiperidin-3-yl)-1-methyl-1H-indazol-6-yl)piperidin-1-yl)methyl)cyclohexyl 4-((5-fluoro-4-(3-(2-oxopyridin-1 (2H)-yl)phenyl)pyrimidin-2-yl)amino)piperidine-1-carboxylate] | < 500
O=C1CCC(Nc2ccc(C3CCN(CC4(O)CCC(C(=O)N5CCC(Nc6ncc(F)c(-c7cccc(-n8ccccc8=O)c7)n6)CC5)CC4)CC3)c(F)c2)C(=O)N1 (stereo not drawn) [Compound 680, trans-3-((3-fluoro-4-(1-((4-(4-((5-fluoro-4-(3-(2-oxopyridin-1 (2H)-yl)phenyl)pyrimidin-2-yl)amino)piperidine-1-carbonyl)-1-hydroxycyclohexyl)methyl)piperidin-4-yl)phenyl)amino)piperidine-2,6-dione] | < 500
O=C1CCC(Nc2ccc(N3CCN(C4CC5(C4)CN(C(=O)O[C@H]4CC[C@H](Nc6ncc(F)c(-c7cccc(-n8ccccc8=O)c7)n6)CC4)C5)CC3)c(F)c2)C(=O)N1 (stereo partly drawn) [Compound 681, trans-4-((5-fluoro-4-(3-(2-oxopyridin-1 (2H)-yl)phenyl)pyrimidin-2-yl)amino)cyclohexyl 6-(4-(4-((2,6-dioxopiperidin-3-yl)amino)-2-fluorophenyl)piperazin-1-yl)-2-azaspiro[3.3]heptane-2-carboxylate] | < 500

Continued, values first:

DC50 [nM] | SMILES
< 500 | O=C1CCC(Nc2ccc(C3CCN(C4CC5(C4)CN(C(=O)O[C@H]4CC[C@H](Nc6ncc(F)c(-c7cccc(-n8ccccc8=O)c7)n6)CC4)C5)CC3)c(F)c2)C(=O)N1 (stereo partly drawn) [Compound 666, (trans)-4-((5-fluoro-4-(3-(2-oxopyridin-1 (2H)-yl)phenyl)pyrimidin-2-yl)amino)cyclohexyl 6-(4-(4-((2,6-dioxopiperidin-3-yl)amino)-2-fluorophenyl)piperidin-1-yl)-2-azaspiro[3.3]heptane-2-carboxylate]
< 500 | O=C1CCC(Nc2ccc(N3CCN(C[C@H]4CC[C@H](C(=O)N5CCC(Nc6ncc(F)c(-c7cccc(N8CCCOC8=O)c7)n6)CC5)CC4)CC3)c(F)c2)C(=O)N1 (stereo partly drawn) [Compound 667, 3-((3-fluoro-4-(4-((trans-4-(4-((5-fluoro-4-(3-(2-oxo-1,3-oxazinan-3-yl)phenyl)pyrimidin-2-yl)amino)piperidine-1-carbonyl)cyclohexyl)methyl)piperazin-1-yl)phenyl)amino)piperidine-2,6-dione]
< 500 | O=C1CCC(Nc2ccc(N3CCN(C4CCN(C(=O)O[C@H]5CC[C@H](Nc6ncc(F)c(-c7cccc(N8CCOCC8)c7)n6)CC5)CC4)CC3)c(F)c2)C(=O)N1 (stereo partly drawn) [Compound 673, trans-4-((5-fluoro-4-(3-morpholinophenyl)pyrimidin-2-yl)amino)cyclohexyl 4-(4-(4-((2,6-dioxopiperidin-3-yl)amino)-2-fluorophenyl)piperazin-1-yl)piperidine-1-carboxylate]
< 500 | O=C1CCC(Nc2ccc(N3CCN(C4CCN(C(=O)O[C@H]5CC[C@H](Nc6ncc(F)c(-c7cccc(N8CCCOC8=O)c7)n6)CC5)CC4)CC3)c(F)c2)C(=O)N1 (stereo partly drawn) [Compound 674, trans-4-((5-fluoro-4-(3-(2-oxo-1,3-oxazinan-3-yl)phenyl)pyrimidin-2-yl)amino)cyclohexyl 4-(4-(4-((2,6-dioxopiperidin-3-yl)amino)-2-fluorophenyl)piperazin-1-yl)piperidine-1-carboxylate]
< 500 | O=C1CCC(Nc2ccc(C3CCN(C4CCN(C(=O)O[C@H]5CC[C@H](Nc6ncc(F)c(-c7cccc(N8CCOCC8)c7)n6)CC5)CC4)CC3)c(F)c2)C(=O)N1 (stereo partly drawn) [Compound 676, trans-4-((5-fluoro-4-(3-morpholinophenyl)pyrimidin-2-yl)amino)cyclohexyl 4-(4-((2,6-dioxopiperidin-3-yl)amino)-2-fluorophenyl)-[1,4′-bipiperidine]-1′-carboxylate]
< 500 | O=C1CCC(Nc2ccc(C3CCN(C4CCN(C(=O)O[C@H]5CC[C@H](Nc6ncc(F)c(-c7cccc(N8CCCOC8=O)c7)n6)CC5)CC4)CC3)c(F)c2)C(=O)N1 (stereo partly drawn) [Compound 677, trans-4-((5-fluoro-4-(3-(2-oxo-1,3-oxazinan-3-yl)phenyl)pyrimidin-2-yl)amino)cyclohexyl 4-(4-((2,6-dioxopiperidin-3-yl)amino)-2-fluorophenyl)-[1,4′-bipiperidine]-1′-carboxylate]
< 500 | O=C1CCC(Nc2ccc(C3CCN(C4CCN(C(=O)O[C@H]5CC[C@H](Nc6ncc(F)c(-c7cccc(N8CCCCC8=O)c7)n6)CC5)CC4)CC3)c(F)c2)C(=O)N1 (stereo partly drawn) [Compound 678, trans-4-((5-fluoro-4-(3-(2-oxopiperidin-1-yl)phenyl)pyrimidin-2-yl)amino)cyclohexyl 4-(4-((2,6-dioxopiperidin-3-yl)amino)-2-fluorophenyl)-[1,4′-bipiperidine]-1′-carboxylate]

same assay, conditions: read-out: HiBIT-degradation MOLT4 PIP4k2C DC50 (6 hours, marked *); 6 hours of incubation time, rather than 24 hours; MOLT-4, top concentration 10 micromolar

DC50 [nM] | SMILES
> 5000 | O=C1CCC(Nc2ccc(N3CCN(C[C@H]4CC[C@H](C(=O)N5CCC(Nc6ncc(F)c(-c7cccc(N8CCOCC8)c7)n6)CC5)CC4)CC3)c(F)c2)C(=O)N1 (stereo partly drawn) [Compound 670, 3-((3-fluoro-4-(4-((trans-4-(4-((5-fluoro-4-(3-morpholinophenyl)pyrimidin-2-yl)amino)piperidine-1-carbonyl)cyclohexyl)methyl)piperazin-1-yl)phenyl)amino) piperidine-2,6-dione]
< 500 | O=C1CCC(Nc2ccc(N3CCN(C4CCN(C(=O)O[C@H]5CC[C@H](Nc6ncc(F)c(-c7cccc(N8CCCCC8=O)c7)n6)CC5)CC4)CC3)c(F)c2)C(=O)N1 (stereo partly drawn) [Compound 675, trans-4-((5-fluoro-4-(3-(2-oxopiperidin-1-yl)phenyl)pyrimidin-2-yl)amino)cyclohexyl 4-(4-(4-((2,6-dioxopiperidin-3-yl)amino)-2-fluorophenyl)piperazin-1-yl)piperidine-1-carboxylate]
